This assay concerns Hair follicles (HF). Description: Hair follicle (HF) explant growth assay. It is filed as cell-based, human. The following applies: HF elongation after 7-8 days; 20 ng/ml of each growth factor, hypoxanthine 2 μM; mean of 6-8 independent experiments. The procedure:
Hair follicles (HF) were extracted from the occipital area of 6-8 individuals with hair loss. The HFs were processed to equivalent lengths and cultured in William's E medium supplemented with 100 units/ml penicillin G, 100 μg/ml streptomycin, 0.25 μg/ml amphotericin B, […], 1 ng/ml hydrocortisone; basic medium or control medium or basic medium supplemented with 20 ng/ml of each of IGF-1, FGF-2, PDGF, Wnt-3A (Wnt), Noggin (Nog), Ephrin A3 (Eph), SHH and BMP-6 as well as hypoxanthine (Hyx) at 2 μM final concentration. The “GF10 cocktail” or “GF10” includes all nine growth factors and hypoxanthine while the “GF7 cocktail” or “GF7” contains six growth factors (all growth factors of GF10 except for FGF-10, Eph and SHH) and hypoxanthine. Growth promotion was measured as elongation of the HF at the end of 7-8 days. All growth factors and hypoxanthine promoted growth individually and in combination (FIG. 1 and Table 1).

In the case of “IGF1: insulin-like growth factors-1, cellular growth factor”, the “Increase in growth (% control) Mean” value was found to be 39.31 % control. On to `O=c1[nH]cnc2nc[nH]c12` [Hypx, hypoxanthine], for which the “Increase in growth (% control) Mean” value is 104.1618 % control.

In the case of FGF2: fibroblast growth factor-2, the “Increase in growth (% control) Mean” value is listed as 146.474 % control.

Consider PDGF: platelet-derived growth factor-AA, for which the “Increase in growth (% control) Mean” value worked out at 69.56 % control.
